Assay results reported in ChEMBL document CHEMBL2413072, “Synthesis and in vitro anticancer studies of novel C-2 arylidene congeners of lantadenes” (2013).

Legend:
Assay type in all cases: functional
HCT-116 = assay: Growth inhibition of human HCT116 cells assessed as cell growth at 10^-4 M by sulforhodamine B assay; details: read-out: Activity
MDA-MB-468 = assay: Growth inhibition of human MDA-MB-468 cells assessed as cell growth at 10^-6 M by sulforhodamine B assay; details: read-out: Activity
RPMI-8226 [1] = assay: Growth inhibition of human RPMI8226 cells assessed as cell growth at 10^-7 M by sulforhodamine B assay; details: read-out: Activity
NCI-H226 [2] = assay: Growth inhibition of human NCI-H226 cells assessed as cell growth at 10^-8 M by sulforhodamine B assay; details: read-out: Activity
SNB-75 = assay: Growth inhibition of human SNB75 cells assessed as cell growth at 10^-6 M by sulforhodamine B assay; details: read-out: Activity
HOP-62 = assay: Growth inhibition of human HOP62 cells assessed as cell growth at 10^-4 M by sulforhodamine B assay; details: read-out: Activity
RPMI-8226 [3] = assay: Growth inhibition of human RPMI8226 cells assessed as cell growth at 10^-4 M by sulforhodamine B assay; details: read-out: Activity
SK-MEL-2 = assay: Growth inhibition of human SK-MEL-2 cells by sulforhodamine B assay
A498 [4] = assay: Growth inhibition of human A498 cells assessed as cell growth at 10^-4 M by sulforhodamine B assay; details: read-out: Activity
[5] = Growth inhibition of human Hs 578T cells assessed as cell growth at 10^-7 M by sulforhodamine B assay; details: read-out: Activity
UACC-257 = assay: Growth inhibition of human UACC257 cells assessed as cell growth at 10^-4 M by sulforhodamine B assay; details: read-out: Activity
HT-29 [6] = assay: Growth inhibition of human HT-29 cells assessed as cell growth at 10^-4 M by sulforhodamine B assay; details: read-out: Activity
OVCAR-5 [7] = assay: Growth inhibition of human OVCAR5 cells assessed as cell growth at 10^-6 M by sulforhodamine B assay; details: read-out: Activity
OVCAR-5 [8] = assay: Growth inhibition of human OVCAR5 cells assessed as cell growth at 10^-4 M by sulforhodamine B assay; details: read-out: Activity
COLO 205 = assay: Growth inhibition of human COLO205 cells assessed as cell growth at 10^-4 M by sulforhodamine B assay; details: read-out: Activity
NCI-H322M [9] = assay: Growth inhibition of human NCI-H322M cells assessed as cell growth at 10^-8 M by sulforhodamine B assay; details: read-out: Activity
M14 = assay: Growth inhibition of human M14 cells assessed as cell growth at 10^-8 M by sulforhodamine B assay; details: read-out: Activity
UO-31 = assay: Growth inhibition of human UO31 cells by sulforhodamine B assay
KM12 = assay: Growth inhibition of human KM12 cells assessed as cell growth at 10^-7 M by sulforhodamine B assay; details: read-out: Activity
SF-539 [10] = assay: Growth inhibition of human SF539 cells by sulforhodamine B assay
SF-539 [11] = assay: Growth inhibition of human SF539 cells assessed as cell growth at 10^-7 M by sulforhodamine B assay; details: read-out: Activity
NCI-H322M [12] = assay: Growth inhibition of human NCI-H322M cells assessed as cell growth at 10^-4 M by sulforhodamine B assay; details: read-out: Activity
SK-OV-3 [13] = assay: Growth inhibition of human SKOV3 cells by sulforhodamine B assay
NCI-H460 = assay: Growth inhibition of human NCI-H460 cells assessed as cell growth at 10^-7 M by sulforhodamine B assay; details: read-out: Activity
A498 [14] = assay: Growth inhibition of human A498 cells assessed as cell growth at 10^-7 M by sulforhodamine B assay; details: read-out: Activity
HOP-92 = assay: Growth inhibition of human HOP92 cells assessed as cell growth at 10^-8 M by sulforhodamine B assay; details: read-out: Activity
BT-549 = assay: Growth inhibition of human BT549 cells assessed as cell growth at 10^-8 M by sulforhodamine B assay; details: read-out: Activity
SF-539 [15] = assay: Growth inhibition of human SF539 cells assessed as cell growth at 10^-8 M by sulforhodamine B assay; details: read-out: Activity
SK-MEL-5 = assay: Growth inhibition of human SK-MEL-5 cells assessed as cell growth at 10^-6 M by sulforhodamine B assay; details: read-out: Activity
LOX IMVI = assay: Growth inhibition of human LOXIMVI cells assessed as cell growth at 10^-8 M by sulforhodamine B assay; details: read-out: Activity
PC-3 [16] = assay: Growth inhibition of human PC3 cells by sulforhodamine B assay
UACC-62 = assay: Growth inhibition of human UACC62 cells by sulforhodamine B assay
CAKI-1 = assay: Growth inhibition of human CAKI-1 cells by sulforhodamine B assay
PC-3 [17] = assay: Growth inhibition of human PC3 cells assessed as cell growth at 10^-7 M by sulforhodamine B assay; details: read-out: Activity
SK-OV-3 [18] = assay: Growth inhibition of human SKOV3 cells assessed as cell growth at 10^-6 M by sulforhodamine B assay; details: read-out: Activity
HT-29 [19] = assay: Growth inhibition of human HT-29 cells by sulforhodamine B assay
NCI-H226 [20] = assay: Growth inhibition of human NCI-H226 cells by sulforhodamine B assay
DU-145 = assay: Growth inhibition of human DU145 cells assessed as cell growth at 10^-7 M by sulforhodamine B assay; details: read-out: Activity
786-0 = assay: Growth inhibition of human 786-0 cells assessed as cell growth at 10^-8 M by sulforhodamine B assay; details: read-out: Activity
[21] = read-out: LC50 (the source's name)
[22] = read-out: pLC50 (the source's name) (converted)

## C/C=C(/C)C(=O)O[C@@H]1CC(C)(C)C[C@H]2C3=CC[C@@H]4[C@@]5(C)CCC(=O)C(C)(C)[C@@H]5CC[C@@]4(C)[C@]3(C)CC[C@@]12C(=O)O [LANTADENE A]
HCT-116
  growth at 100 µM: 11%
MDA-MB-468
  growth at 1 µM: 74%
RPMI-8226 [1]
  growth at 0.1 µM: 91%
NCI-H226 [2]
  growth at 0.01 µM: 85%
SNB-75
  growth at 1 µM: 88%
HOP-62
  growth at 100 µM: 26%
RPMI-8226 [3]
  growth at 100 µM: 10%
SK-MEL-2; read-out: GI50
  GI50: 3.07 µM
SK-MEL-2; [21]
  CC50: > 100 µM
SK-MEL-2; read-out: TGI
  TGI: 8.07 µM
SK-MEL-2; read-out: pGI50 (converted)
  GI50: 3.09 µM
SK-MEL-2; [22]
  CC50: > 100 µM
SK-MEL-2; read-out: pTGI (converted)
  TGI: 8.13 µM
A498 [4]
  growth at 100 µM: -20%
[5]
  growth at 0.1 µM: 93%
UACC-257
  growth at 100 µM: 21%
HT-29 [6]
  growth at 100 µM: 19%
OVCAR-5 [7]
  growth at 1 µM: 98%
OVCAR-5 [8]
  growth at 100 µM: 42%
COLO 205
  growth at 100 µM: -51%
NCI-H322M [9]
  growth at 0.01 µM: 99%
M14
  growth at 0.01 µM: 96%
UO-31; read-out: GI50
  GI50: 3.44 µM
UO-31; [21]
  CC50: > 100 µM
UO-31; read-out: TGI
  TGI: > 100 µM
UO-31; read-out: pGI50 (converted)
  GI50: 3.47 µM
UO-31; [22]
  CC50: > 100 µM
UO-31; read-out: pTGI (converted)
  TGI: > 100 µM
KM12
  growth at 0.1 µM: 102%
SF-539 [10]; read-out: GI50
  GI50: 6.51 µM
SF-539 [10]; [21]
  CC50: > 100 µM
SF-539 [10]; read-out: TGI
  TGI: > 100 µM
SF-539 [10]; read-out: pGI50 (converted)
  GI50: 6.46 µM
SF-539 [10]; [22]
  CC50: > 100 µM
SF-539 [10]; read-out: pTGI (converted)
  TGI: > 100 µM
SF-539 [11]
  growth at 0.1 µM: 103%
NCI-H322M [12]
  growth at 100 µM: 17%
SK-OV-3 [13]; read-out: GI50
  GI50: 18 µM
SK-OV-3 [13]; [21]
  CC50: > 100 µM
SK-OV-3 [13]; read-out: TGI
  TGI: > 100 µM
SK-OV-3 [13]; read-out: pGI50 (converted)
  GI50: 18.2 µM
SK-OV-3 [13]; [22]
  CC50: > 100 µM
SK-OV-3 [13]; read-out: pTGI (converted)
  TGI: > 100 µM
NCI-H460
  growth at 0.1 µM: 98%
A498 [14]
  growth at 0.1 µM: 86%
HOP-92
  growth at 0.01 µM: 87%
BT-549
  growth at 0.01 µM: 99%
SF-539 [15]
  growth at 0.01 µM: 102%
SK-MEL-5
  growth at 1 µM: 58%
LOX IMVI
  growth at 0.01 µM: 96%
PC-3 [16]; read-out: GI50
  GI50: 2.53 µM
PC-3 [16]; [21]
  CC50: > 100 µM
PC-3 [16]; read-out: TGI
  TGI: > 100 µM
PC-3 [16]; read-out: pGI50 (converted)
  GI50: 2.51 µM
PC-3 [16]; [22]
  CC50: > 100 µM
PC-3 [16]; read-out: pTGI (converted)
  TGI: > 100 µM
UACC-62; read-out: GI50
  GI50: 1.73 µM
UACC-62; [21]
  CC50: 43 µM
UACC-62; read-out: TGI
  TGI: 6.56 µM
UACC-62; read-out: pGI50 (converted)
  GI50: 1.74 µM
UACC-62; [22]
  CC50: 42.7 µM
UACC-62; read-out: pTGI (converted)
  TGI: 6.61 µM
CAKI-1; read-out: GI50
  GI50: 3.93 µM
CAKI-1; [21]
  CC50: > 100 µM
CAKI-1; read-out: TGI
  TGI: > 100 µM
CAKI-1; read-out: pGI50 (converted)
  GI50: 3.89 µM
CAKI-1; [22]
  CC50: > 100 µM
CAKI-1; read-out: pTGI (converted)
  TGI: > 100 µM
PC-3 [17]
  growth at 0.1 µM: 83%
SK-OV-3 [18]
  growth at 1 µM: 103%
HT-29 [19]; read-out: GI50
  GI50: 4.32 µM
HT-29 [19]; read-out: LC50
  LC50 (50% cell kill): > 100 µM
HT-29 [19]; read-out: TGI
  TGI: > 100 µM
HT-29 [19]; read-out: pGI50 (converted)
  GI50: 4.37 µM
HT-29 [19]; read-out: pLC50 (converted)
  LC50 (50% cell kill): > 100 µM
HT-29 [19]; read-out: pTGI (converted)
  TGI: > 100 µM
NCI-H226 [20]; read-out: GI50
  GI50: 4.71 µM
NCI-H226 [20]; read-out: LC50
  LC50: > 100 µM
NCI-H226 [20]; read-out: TGI
  TGI: > 100 µM
NCI-H226 [20]; read-out: pGI50 (converted)
  GI50: 4.68 µM
NCI-H226 [20]; read-out: pLC50 (converted)
  LC50: > 100 µM
NCI-H226 [20]; read-out: pTGI (converted)
  TGI: > 100 µM
DU-145
  growth at 0.1 µM: 107%
786-0
  growth at 0.01 µM: 95%
